These results are taken from patent US20060100431A1, “Biologically active compounds” (Amura Therapeutics Limited, priority 2002, published 2006).

What is called Ki is the equilibrium dissociation constant of an inhibitor or competing ligand from its target.

What all share (type): biochemical
One experiment has as its target T1, Bovine cathepsin S (Bos taurus, UniProt P25326).
T1 construct: purchased CN Biosciences
The experiment can be described thus: Cathepsin S peptidase activity assay, bovine enzyme (Ki). Particulars: species of cathepsin S not given; read-out: Ki, inhibitors of cathepsin S. As for the experimental part:
Unless otherwise stated, all general chemicals and biochemicals were purchased from either the Sigma Chemical Company, Poole, Dorset, U.K or from Fisher Scientific UK, Loughborough, Leicestershire, U.K. Absorbance assays were carried out in flat-bottomed 96-well plates (Spectra; Greiner Bio-One Ltd., Stonehouse, Gloucestershire, U.K.) using a SpectraMax PLUS384 plate reader (Molecular Devices, Crawley, U.K.). Fluorescence high throughput assays were carried out in either 384-well microtitre plates (Corning Costar 3705 plates, Fisher Scientific) or 96-well ‘U’ bottomed Microfluor W1 microtitre plates (Thermo Labsystems, Ashford, Middlesex, U.K.). Fluorescence assays were monitored using a SpectraMax Gemini fluorescence plate reader (Molecular Devices). For substrates employing either a 7-amino-4-methylcoumarin (AMC) or a 7-amino-4-trifluoromethylcoumarin (AFC) fluorophore, assays were monitored at an excitation wavelength of 365 nm and an emission wavelength of 450 nm and the fluorescence plate reader calibrated with AMC. For substrates employing a 3-amino-benzoyl (Abz) fluorophore, assays were monitored at an excitation wavelength of 310 nm and an emission wavelength of 445 nm; the fluorescence plate reader calibrated with 3-amino-benzamide (Fluka). Unless otherwise indicated, all the peptidase substrates were purchased from Bachem UK, St Helens, Merseyside, UK. Substrates utilizing fluorescence resonance energy transfer methodology (i.e. FRET-based substrates) were synthesized at Incenta Limited using published methods (Atherton & Sheppard, Solid Phase Peptide Synthesis, IRL Press, Oxford, U.K, 1989) and employed Abz (2-aminobenzoyl) as the fluorescence donor and 3-nitro-tyrosine [Tyr(NO2)] as the fluorescence quencher (Meldal, M. and Breddam, K., Anal. Biochem, 195, 141-147, 1991). Hydroxyethylpiperazine ethanesulfonate (HEPES), tris-hydroxylmethyl aminomethane (tris) base, bis-tris-propane and all the biological detergents (e.g. CHAPS, zwittergents, etc.) were purchased from CN Biosciences UK, Beeston, Nottinghamshire, U.K. Glycerol was purchased from Amersham Pharmacia Biotech, Little Chalfont, Buckinghamshire, U.K. Stock solutions of substrate or inhibitor were made up to 10 mM in 100% dimethylsulfoxide (DMSO) (Rathburns, Glasgow, U.K.) and diluted as appropriately required. In all cases the DMSO concentration in the assays was maintained at less than 1% (vol./vol.).
Assay protocols were based on literature precedent (Table 4; Barrett, A. J., Rawlings, N. D. and Woessner, J. F., 1998, Handbook of Proteolytic Enzymes, Academic Press, London and references therein) and modified as required to suit local assay protocols. Enzyme was added as required to initiate the reaction and the activity, as judged by the change in fluorescence upon conversion of substrate to product, was monitored over time. All assays were carried out at 25±1° C.
Bovine cathepsin S, human cathepsin L, human cathepsin H and human cathepsin B were obtained from CN Biosciences. Recombinant human cathepsin S, human cathepsin K and human cathepsin X were obtained from Dr. Boris Turk (Josef Stefan Institute, Ljubljana, Slovenia). Unless otherwise stated, all peptidase activity assays were carried out in 10 mM bis-tris-propane (BTP), pH 6.5 containing 1 mM EDTA, 5 mM 2-mercaptoethanol and 1 mM CaCl2. Human cathepsin H activity assays were carried out in 10 mM BTP pH 6.5, 142 mM NaCl2, 1 mM CaCl2, 1 mM EDTA, 1 mM DTT, 0.035 mM Zwittergent 3-16. Human cathepsin K assays were carried out in 100 mM sodium acetate; pH 5.5 containing 20 mM L-cysteine and 1 mM EDTA (Bossard, M. J., et. al., J. Biol. Chem., 21, 12517-12524, 1996). Human cathepsin X assays were carried out in 100 mM sodium acetate; pH 5.5 containing 20 mM L-cysteine; 0.05% (w/v) Brij 35 and 1 mM EDTA (Santamaria, I., et. al., J. Biol. Chem., 273, 16816-16823, 1998; Klemencic, J, et al., Eur. J. Biochem., 267, 5404-5412, 2000).

For the next experiment, the target named is Wild-type cruzipain (Trypanosoma cruzi, UniProt P25779). The experiment can be described thus: Trypanosoma cruzi cruzipain peptidase activity assay (Ki). Particulars: read-out: Ki, inhibitors of cruzain and cruzipains. The essentials:
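Native cruzipain from T. cruzi Dm28 epimastigotes, 2.5 nM, in 100 mM sodium phosphate pH 6.75 with 1 mM EDTA and 10 mM L-cysteine, 25 °C, DMSO <1%. Rates taken from continuous fluorogenic substrate read; Ki by regression assuming reversible pure-competitive inhibition.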

Another experiment concerns the target T2, CPB2.8ΔCTE (Leishmania mexicana, UniProt P36400).
T2 construct: Wild-type recombinant CPB without the C-terminal extention (i.e. CPB2.8ΔCTE); Dr. Jeremy Mottram (Wellcome Centre for Molecular Parasitology, University of Glasgow)
As to the kind of experiment: Leishmania mexicana cysteine protease B (CPB) peptidase activity assay (Ki). Particulars: Ki, inhibitors of Leismania mexicana CPB protease. The essentials: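 Recombinant CPB2.8ΔCTE (0.25 nM) was assayed in 100 mM sodium acetate pH 5.5 with 1 mM EDTA, 200 mM NaCl and 10 mM DTT at 25 °C, DMSO <1%, enzyme added to start. Rates were taken from continuous fluorescence slopes; apparent Ki was fitted assuming reversible, pure-competitive inhibition.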

In a further experiment the target is T3, human cathepsin L (Homo sapiens, UniProt P07711).
T3 construct: purchased CN Biosciences
The experiment can be described thus: Cathepsin L peptidase activity assay (Ki). The settings on record: read-out: Ki, inhibitors of cathepsin L. The procedure, abridged: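 Human cathepsin L at 1 nM with Ac-Phe-Arg-AMC at its KM^app (~20 μM) in 10 mM bis-tris-propane pH 6.5, 1 mM EDTA, 5 mM 2-mercaptoethanol, 1 mM CaCl2, DMSO <1%, 25±1° C. Reaction enzyme-initiated; AMC fluorescence (ex 365/em 450 nm) monitored over time.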

T1 sequence (P25326 115-331): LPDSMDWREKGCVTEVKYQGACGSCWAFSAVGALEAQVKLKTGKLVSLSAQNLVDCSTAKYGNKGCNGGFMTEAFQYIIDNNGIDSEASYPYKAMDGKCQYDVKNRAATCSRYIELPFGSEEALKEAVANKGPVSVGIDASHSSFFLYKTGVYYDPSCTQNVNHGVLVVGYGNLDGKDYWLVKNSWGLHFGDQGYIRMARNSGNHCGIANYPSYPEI
T2 sequence (P36400 126-343, stated change not applied): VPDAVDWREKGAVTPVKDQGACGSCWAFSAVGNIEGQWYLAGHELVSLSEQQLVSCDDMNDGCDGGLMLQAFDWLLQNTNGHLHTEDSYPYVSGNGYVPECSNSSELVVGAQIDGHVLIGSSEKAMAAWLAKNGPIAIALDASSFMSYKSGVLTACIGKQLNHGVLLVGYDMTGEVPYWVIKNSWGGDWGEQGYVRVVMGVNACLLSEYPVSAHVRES
Sequence of Wild-type cruzipain (P25779 whole entry): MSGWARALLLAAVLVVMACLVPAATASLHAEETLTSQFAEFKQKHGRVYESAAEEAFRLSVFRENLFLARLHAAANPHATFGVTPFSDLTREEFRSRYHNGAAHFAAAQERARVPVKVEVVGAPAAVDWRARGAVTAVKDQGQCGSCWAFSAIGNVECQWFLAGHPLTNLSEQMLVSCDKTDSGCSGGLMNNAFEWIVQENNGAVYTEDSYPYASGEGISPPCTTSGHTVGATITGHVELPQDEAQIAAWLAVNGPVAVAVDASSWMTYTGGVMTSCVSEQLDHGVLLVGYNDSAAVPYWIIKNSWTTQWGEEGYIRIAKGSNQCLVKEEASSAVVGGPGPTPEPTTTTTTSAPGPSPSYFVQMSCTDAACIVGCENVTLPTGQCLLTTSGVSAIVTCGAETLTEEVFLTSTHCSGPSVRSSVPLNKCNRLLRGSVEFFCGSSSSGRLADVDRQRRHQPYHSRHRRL
T3 sequence (P07711 114-333): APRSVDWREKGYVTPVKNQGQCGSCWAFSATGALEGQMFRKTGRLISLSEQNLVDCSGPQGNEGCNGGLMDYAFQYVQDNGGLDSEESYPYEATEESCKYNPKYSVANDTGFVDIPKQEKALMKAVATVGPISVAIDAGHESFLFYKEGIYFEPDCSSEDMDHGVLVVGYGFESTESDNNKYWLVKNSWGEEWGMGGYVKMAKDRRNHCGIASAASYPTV

Consider `CC(C)C[C@H](NC(=O)c1cc2ccccc2o1)C(=O)N1CC[C@@H]2[C@H]1C(=O)CN2C(=O)c1cccnc1` [Example 16, (3aR,6aS)-Benzofuran-2-carboxylic acid {(1S)-3-methyl-1-[6-oxo-4-(pyridine-3-carbonyl)-hexahydro-pyrrolo[3,2-b]pyrrole-1-carbonyl]-butyl}-amide], for which the Ki on Bovine cathepsin S, at Wild-type cruzipain, on CPB2.8ΔCTE and at human cathepsin L was < 5 µM in each case.

In the case of `O=C(N[C@@H](CC1CC1)C(=O)N1CC[C@@H]2[C@H]1C(=O)CN2C(=O)c1ccccc1)c1ccsc1` [Example 187, (3aR,6aS)-Thiophene-3-carboxylic acid [(1S)-2-(4-benzoyl-6-oxo-hexahydro-pyrrolo[3,2-b]pyrrole-1-yl)-1-cyclopropylmethyl-2-oxo-ethyl]-amide], at Bovine cathepsin S, the inhibition constant Ki is < 5 µM.

On to `CC(C)C[C@H](NC(=O)c1cccc(CN)c1)C(=O)N1CC[C@@H]2[C@H]1C(=O)CN2S(=O)(=O)c1ccccc1` [Example 123, (3aR,6aS)-3-Aminomethyl-N-[(1S)-1-(4-benzenesulfonyl-6-oxo-hexahydro-pyrrolo[3,2-b]pyrrole-1-carbonyl)-3-methyl-butyl]-benzamide], for which the inhibition constant Ki at Bovine cathepsin S is < 5 µM.

Consider `CC(C)C[C@H](NC(=O)c1ccc2ccccc2n1)C(=O)N1CC[C@@H]2[C@H]1C(=O)CN2C(=O)c1ccccc1` [Example 8, (3aR,6aS)-Quinoline-2-carboxylic acid [(1S)-1-(4-benzoyl-6-oxo-hexahydro-pyrrolo[3,2-b]pyrrole-1-carbonyl)-3-methyl-butyl]-amide], for which the Ki on Bovine cathepsin S, at Wild-type cruzipain and at human cathepsin L was < 5 µM in each case.

Consider `CC(C)C[C@H](NC(=O)c1cnc2ccccc2n1)C(=O)N1CC[C@@H]2[C@H]1C(=O)CN2C(=O)c1cccnc1` [Example 19, (3aR,6aS)-Quinoxaline-2-carboxylic acid {(1S)-3-methyl-1-[6-oxo-4-(pyridine-3-carbonyl)-hexahydro-pyrrolo[3,2-b]pyrrole-1-carbonyl]-butyl}-amide], for which the Ki on Bovine cathepsin S and at Wild-type cruzipain was < 5 µM throughout.

Regarding `CC(C)C[C@H](NC(=O)c1cccc(Oc2ccccc2)c1)C(=O)N1CC[C@@H]2[C@H]1C(=O)CN2C(=O)c1ccccc1` [Example 13, (3aR,6aS)-N-[(1S)-1-(4-Benzoyl-6-oxo-hexahydro-pyrrolo[3,2-b]pyrrole-1-carbonyl)-3-methyl-butyl]-3-phenoxy-benzamide], the inhibitory constant (Ki) on Bovine cathepsin S, on Wild-type cruzipain and at CPB2.8ΔCTE was < 5 µM throughout.

`O=C(N[C@@H](Cc1ccc(O)cc1)C(=O)N1CC[C@@H]2[C@H]1C(=O)CN2C(=O)c1ccccc1)c1ccc2ncsc2c1` [Example 317, (3aR,6aS)-Benzothiazole-6-carboxylic acid [(1S)-2-(4-benzoyl-6-oxo-hexahydro-pyrrolo[3,2-b]pyrrole-1-yl)-1-(4-hydroxy-benzyl)-2-oxo-ethyl]-amide]: the Ki on Bovine cathepsin S and on Wild-type cruzipain was < 5 µM in each case.

As to `CC(C)C[C@H](NC(=O)c1cccc(Oc2ccccc2)c1)C(=O)N1CC[C@@H]2[C@H]1C(=O)CN2C(=O)c1cccnc1` [Example 20, (3aR,6aS)-N-{(1S)-3-Methyl-1-[6-oxo-4-(pyridine-3-carbonyl)-hexahydro-pyrrolo[3,2-b]pyrrole-1-carbonyl]-butyl}-3-phenoxy-benzamide], the Ki on Bovine cathepsin S, at Wild-type cruzipain and at CPB2.8ΔCTE was < 5 µM each time.

Regarding `Cc1c(C(=O)N[C@@H](CC(C)C)C(=O)N2CC[C@@H]3[C@H]2C(=O)CN3C(=O)c2ccccc2)oc2ccccc12` [Example 10, (3aR,6aS)-3-Methyl-benzofuran-2-carboxylic acid [(1S)-1-(4-benzoyl-6-oxo-hexahydro-pyrrolo[3,2-b]pyrrole-1-carbonyl)-3-methyl-butyl]-amide], the Ki at Bovine cathepsin S, at Wild-type cruzipain and on human cathepsin L was < 5 µM in each case.

For `CC(C)C[C@H](NC(=O)c1cccc(Br)c1)C(=O)N1CC[C@@H]2[C@H]1C(=O)CN2C(=O)c1ccccc1` [Example 340, (3aR,6aS)-N-[(1S)-1-(4-Benzoyl-6-oxo-hexahydro-pyrrolo[3,2-b]pyrrole-1-carbonyl)-3-methyl-butyl]-3-bromo-benzamide], the Ki on Bovine cathepsin S is < 5 µM.

With `CS(=O)(=O)c1ccccc1C(=O)N1CC(=O)[C@@H]2[C@H]1CCN2C(=O)[C@H](Cc1ccc(O)cc1)NC(=O)c1cccc(Br)c1` [Example 303, (3aR,6aS)-3-Bromo-N-{(1S)-1-(4-hydroxy-benzyl)-2-[4-(2-methanesulfonyl-benzoyl)-6-oxo-hexahydro-pyrrolo[3,2-b]pyrrole-1-yl]-2-oxo-ethyl}-benzamide], the inhibition constant Ki at Bovine cathepsin S and on Wild-type cruzipain was < 5 µM in each case.

On to `O=C(N[C@@H](Cc1ccc(O)cc1)C(=O)N1CC[C@@H]2[C@H]1C(=O)CN2C(=O)c1ccccc1)c1cccc(Cl)c1` [Example 334, (3aR,6aS)-N-[(1S)-2-(4-Benzoyl-6-oxo-hexahydro-pyrrolo[3,2-b]pyrrol-1-yl)-1-(4-hydroxy-benzyl)-2-oxo-ethyl]-3-chloro-benzamide], for which the Ki at Bovine cathepsin S and at Wild-type cruzipain was < 5 µM each time.

Turning to `CC(C)C[C@H](NC(=O)c1cc2ccccc2o1)C(=O)N1CC[C@@H]2[C@H]1C(=O)CN2C(=O)c1ccccc1` [Example 9, (3aR,6aS)-Benzofuran-2-carboxylic acid [(1S)-1-(4-benzoyl-6-oxo-hexahydropyrrolo[3,2-b]pyrrole-1-carbonyl)-3-methyl-butyl]-amide], the Ki at Bovine cathepsin S, on Wild-type cruzipain and at human cathepsin L was < 5 µM throughout.

With `O=C(N[C@@H](Cc1ccc(O)cc1)C(=O)N1CC[C@@H]2[C@H]1C(=O)CN2C(=O)c1ccccc1)c1cccc(F)c1` [Example 335, (3aR,6aS)-N-[(1S)-2-(4-Benzoyl-6-oxo-hexahydro-pyrrolo[3,2-b]pyrrol-1-yl)-1-(4-hydroxy-benzyl)-2-oxo-ethyl]-3-fluoro-benzamide], the Ki on Bovine cathepsin S and on Wild-type cruzipain was < 5 µM each time.

For the compound `CC(C)C[C@H](NC(=O)c1cnc2ccccc2n1)C(=O)N1CC[C@@H]2[C@H]1C(=O)CN2C(=O)c1ccccc1` [Example 12, (3aR,6aS)-Quinoxaline-2-carboxylic acid [(1S)-1-(4-benzoyl-6-oxo-hexahydro-pyrrolo[3,2-b]pyrrole-1-carbonyl)-3-methyl-butyl]-amide], the Ki on Bovine cathepsin S, on Wild-type cruzipain and at human cathepsin L was < 5 µM throughout.
